# Target: T1, human TLR9 (Homo sapiens, UniProt Q9NR96)
# T1 sequence (Q9NR96 26-1032): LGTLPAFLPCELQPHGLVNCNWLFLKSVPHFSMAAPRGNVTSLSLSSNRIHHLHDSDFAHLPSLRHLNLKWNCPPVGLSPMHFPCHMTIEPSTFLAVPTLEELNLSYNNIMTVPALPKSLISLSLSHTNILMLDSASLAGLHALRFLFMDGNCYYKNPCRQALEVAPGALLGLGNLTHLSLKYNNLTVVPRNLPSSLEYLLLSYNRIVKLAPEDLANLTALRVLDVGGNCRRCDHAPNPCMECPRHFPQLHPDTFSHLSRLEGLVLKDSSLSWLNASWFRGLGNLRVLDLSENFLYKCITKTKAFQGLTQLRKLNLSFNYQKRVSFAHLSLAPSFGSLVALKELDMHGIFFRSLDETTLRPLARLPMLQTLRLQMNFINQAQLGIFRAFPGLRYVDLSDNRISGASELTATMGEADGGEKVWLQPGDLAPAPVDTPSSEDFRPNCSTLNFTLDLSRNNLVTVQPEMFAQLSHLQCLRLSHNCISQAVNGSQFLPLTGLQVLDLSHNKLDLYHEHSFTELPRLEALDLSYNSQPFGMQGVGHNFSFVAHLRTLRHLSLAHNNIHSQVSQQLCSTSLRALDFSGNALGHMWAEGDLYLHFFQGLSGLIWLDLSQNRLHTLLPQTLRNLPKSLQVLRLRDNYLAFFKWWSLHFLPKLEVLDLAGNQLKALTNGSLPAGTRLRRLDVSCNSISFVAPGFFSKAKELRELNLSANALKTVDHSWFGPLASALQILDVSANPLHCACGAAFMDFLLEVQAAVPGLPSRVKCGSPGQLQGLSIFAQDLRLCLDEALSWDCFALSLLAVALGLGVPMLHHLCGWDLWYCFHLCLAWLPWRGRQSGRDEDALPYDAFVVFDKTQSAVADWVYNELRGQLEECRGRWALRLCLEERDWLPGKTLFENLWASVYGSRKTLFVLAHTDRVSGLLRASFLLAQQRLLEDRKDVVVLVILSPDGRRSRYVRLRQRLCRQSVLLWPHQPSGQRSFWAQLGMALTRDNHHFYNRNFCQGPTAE
# Test: TLR9 inhibition reporter assay (HEK-Blue SEAP, ODN2006 stimulation)
# Format: cell-based
# Conditions: HEK-Blue cells overexpressing human TLR9, ODN2006 5 nM
# Method: TLR7/8/9 Inhibition Reporter Assays
# HEK-Blue™-cells (Invivogen) overexpressing human TLR7, TLR8 or TLR9 receptors were used for screening inhibitors of these receptors using an inducible SEAP (secreted embryonic alkaline phosphatase) reporter gene under the control of the IFN-β minimal promoter fused to five NF-κB and AP-1-binding sites. Briefly, cells are seeded into Greiner 384 well plates (15000 cells per well for TLR7, 20,000 for TLR8 and 25,000 for TLR9) and then treated with test compounds in DMSO to yield a final dose response concentration range of 0.05 nM-50 μM. After a 30 minute compound pre-treatment at room temperature, the cells are then stimulated with a TLR7 ligand (gardiquimod at a final concentration of 7.5 μM), TLR8 ligand (R848 at a final concentration of 15.9 μM) or TLR9 ligand (ODN2006 at a final concentration of 5 nM) to activate NF-κB and AP-1 which induce the production of SEAP. After a 22 hour incubation at 37° C., 5% CO2, SEAP levels are determined with the addition of HEK-Blue™ Detection reagent (Invivogen), a cell culture medium that allows for detection of SEAP, according to manufacturer's specifications. The percent inhibition is determined as the % reduction in the HEK-Blue signal present in wells treated with agonist plus DMSO alone compared to wells treated with a known inhibitor.
row,Compound,IC50 [µM]
1,"Cc1c(-c2[nH]c3sc(C4CCN(C5COC5)CC4)nc3c2C(C)C)cn2ncnc2c1C [Example 43, 5-(7,8-dimethyl-[1,2,4]triazolo[1,5-a]pyridin-6-yl)-6-isopropyl-2-(1-(oxetan-3-yl)piperidin-4-yl)-4H-pyrrolo[3,2-d]thiazole]",> 50
2,"Cc1c(-c2[nH]c3sc(N4CC5(C4)CN(C4COC4)C5)nc3c2C(C)C)cn(C)c(=O)c1C [Example 306, 5-(6-isopropyl-2-(6-(oxetan-3-yl)-2,6-diazaspiro[3.3]heptan-2-yl)-4H-pyrrolo[3,2-d]thiazol-5-yl)-1,3,4-trimethylpyridin-2 (1H)-one]",> 50
3,"Cc1cc(-c2[nH]c3sc(C(=O)N4CCNC(=O)C4)nc3c2C(C)C)cn2ncnc12 [Example 392, 4-(6-isopropyl-5-(8-methyl-[1,2,4]triazolo[1,5-a]pyridin-6-yl)-4H-pyrrolo[3,2-d]thiazole-2-carbonyl)piperazin-2-one]",> 50
4,"Cc1c(-c2[nH]c3sc(N4CC5(C4)CN(C4COC4)C5)nc3c2C(C)C)cn2ncnc2c1C [Example 302, 5-(7,8-dimethyl-[1,2,4]triazolo[1,5-a]pyridin-6-yl)-6-isopropyl-2-(6-(oxetan-3-yl)-2,6-diazaspiro[3.3]heptan-2-yl)-4H-pyrrolo[3,2-d]thiazole]",> 50
5,"Cc1cc(-c2[nH]c3sc(C(=O)N4CCCOCC4)nc3c2C(C)C)cn2ncnc12 [Example 394, (6-isopropyl-5-(8-methyl-[1,2,4]triazolo[1,5-a]pyridin-6-yl)-4H-pyrrolo[3,2-d]thiazol-2-yl)(1,4-oxazepan-4-yl)methanone]",> 50
6,"CNC(=O)CN1CCC(c2nc3c(C(C)C)c(-c4cn(C)c(=O)c(C)c4C)[nH]c3s2)CC1 [Example 63, 2-(4-(6-isopropyl-5-(1,4,5-trimethyl-6-oxo-1,6-dihydropyridin-3-yl)-4H-pyrrolo[3,2-d]thiazol-2-yl)piperidin-1-yl)-N-methylacetamide]",> 50
7,"Cc1c(-c2[nH]c3sc(C(=O)N4CCCC4)nc3c2C(C)C)cn2ncnc2c1C [Example 377, (5-(7,8-dimethyl-[1,2,4]triazolo[1,5-a]pyridin-6-yl)-6-isopropyl-4H-pyrrolo[3,2-d]thiazol-2-yl)(pyrrolidin-1-yl)methanone]",> 50
8,"Cc1c(-c2[nH]c3sc(C(N)=O)nc3c2C(C)C)cn2ncnc2c1C [Example 385, 5-(7,8-dimethyl-[1,2,4]triazolo[1,5-a]pyridin-6-yl)-6-isopropyl-4H-pyrrolo[3,2-d]thiazole-2-carboxamide]",> 50
9,"Cc1c(-c2[nH]c3sc(CN4CC5(COC5)C4)nc3c2C(C)C)cn2ncnc2c1C [Example 408, 6-((5-(7,8-dimethyl-[1,2,4]triazolo[1,5-a]pyridin-6-yl)-6-isopropyl-4H-pyrrolo[3,2-d]thiazol-2-yl)methyl)-2-oxa-6-azaspiro[3.3]heptane]",> 50
10,"COc1cc(-c2[nH]c3sc(C(=O)NCC(F)(F)F)nc3c2C(C)C)cn2ncnc12 [Example 390, 6-isopropyl-5-(8-methoxy-[1,2,4]triazolo[1,5-a]pyridin-6-yl)-N-(2,2,2-trifluoroethyl)-4H-pyrrolo[3,2-d]thiazole-2-carboxamide]",> 50
11,"Cc1c(-c2[nH]c3sc(N4C[C@@H](C)N(CC(=O)N(C)C)C[C@@H]4C)nc3c2C(C)C)cn2ncnc2c1C [Example 335, 2-((2R,5S)-4-(5-(7,8-dimethyl-[1,2,4]triazolo[1,5-a]pyridin-6-yl)-6-isopropyl-4H-pyrrolo[3,2-d]thiazol-2-yl)-2,5-dimethylpiperazin-1-yl)-N,N-dimethylacetamide]",> 50
12,"Cc1c(-c2[nH]c3sc(CN4CCOCC4)nc3c2C(C)C)cn2ncnc2c1C [Example 407, 4-((5-(7,8-dimethyl-[1,2,4]triazolo[1,5-a]pyridin-6-yl)-6-isopropyl-4H-pyrrolo[3,2-d]thiazol-2-yl)methyl)morpholine]",> 50
13,"CC(C)c1c(-c2cn(C)c3ncccc23)[nH]c2sc(C3CCN(CC(N)=O)CC3)nc12 [Example 31, 2-(4-(6-isopropyl-5-(1-methyl-1H-pyrrolo[2,3-b]pyridin-3-yl)-4H-pyrrolo[3,2-d]thiazol-2-yl)piperidin-1-yl) acetamide]",> 50
14,"CC(C)c1c(-c2cn(C)c3ncccc23)[nH]c2sc(C3CCN(CCS(C)(=O)=O)CC3)nc12 [Example 33, 6-isopropyl-5-(1-methyl-1H-pyrrolo[2,3-b]pyridin-3-yl)-2-(1-(2-(methylsulfonyl)ethyl)piperidin-4-yl)-4H-pyrrolo[3,2-d]thiazole]",> 50
15,"Cc1c(-c2[nH]c3sc(N4CC5(CN(CC6CCOCC6)C5)C4)nc3c2C(C)C)cn(C)c(=O)c1C [Example 307, 5-(6-isopropyl-2-(6-((tetrahydro-2H-pyran-4-yl)methyl)-2,6-diazaspiro[3.3]heptan-2-yl)-4H-pyrrolo[3,2-d]thiazol-5-yl)-1,3,4-trimethylpyridin-2 (1H)-one]",> 50
16,"Cc1cc(-c2[nH]c3sc(C(N)=O)nc3c2C(C)C)cn2ncnc12 [Example 391, 6-isopropyl-5-(8-methyl-[1,2,4]triazolo[1,5-a]pyridin-6-yl)-4H-pyrrolo[3,2-d]thiazole-2-carboxamide]",> 50

# Next, values leading:
row,IC50 [µM],Compound
1,> 50,"Cc1c(-c2[nH]c3sc(N4CCN(CCS(C)(=O)=O)C[C@@H]4C)nc3c2C(C)C)cn2ncnc2c1C [Example 344, (S)-5-(7,8-dimethyl-[1,2,4]triazolo[1,5-a]pyridin-6-yl)-6-isopropyl-2-(2-methyl-4-(2-(methylsulfonyl)ethyl)piperazin-1-yl)-4H-pyrrolo[3,2-d]thiazole]"
2,> 50,"Cc1c(-c2[nH]c3sc(N4CCN(C5COC5)C[C@@H]4C)nc3c2C(C)C)cn2ncnc2c1C [Example 348, (S)-5-(7,8-dimethyl-[1,2,4]triazolo[1,5-a]pyridin-6-yl)-6-isopropyl-2-(2-methyl-4-(oxetan-3-yl)piperazin-1-yl)-4H-pyrrolo[3,2-d]thiazole]"
3,> 50,"CNC(=O)CN1CCN(c2nc3c(C(C)C)c(-c4cn5ncnc5c(C)c4C)[nH]c3s2)[C@@H](C)C1 [Example 342, (S)-2-(4-(5-(7,8-dimethyl-[1,2,4]triazolo[1,5-a]pyridin-6-yl)-6-isopropyl-4H-pyrrolo[3,2-d]thiazol-2-yl)-3-methylpiperazin-1-yl)-N-methylacetamide]"
4,> 50,"Cc1c(-c2[nH]c3sc(N4CCN(CCS(C)(=O)=O)C[C@H]4C)nc3c2C(C)C)cn2ncnc2c1C [Example 314, (R)-5-(7,8-dimethyl-[1,2,4]triazolo[1,5-a]pyridin-6-yl)-6-isopropyl-2-(2-methyl-4-(2-(methylsulfonyl)ethyl)piperazin-1-yl)-4H-pyrrolo[3,2-d]thiazole]"
5,> 50,"Cc1c(-c2[nH]c3sc(N4CCN(CC(N)=O)C[C@H]4C)nc3c2C(C)C)cn2ncnc2c1C [Example 313, (R)-2-(4-(5-(7,8-dimethyl-[1,2,4]triazolo[1,5-a]pyridin-6-yl)-6-isopropyl-4H-pyrrolo[3,2-d]thiazol-2-yl)-3-methylpiperazin-1-yl)acetamide]"
6,> 50,"Cc1c(-c2[nH]c3sc(N4CCN(C5COC5)C[C@H]4C)nc3c2C(C)C)cn2ncnc2c1C [Example 316, (R)-5-(7,8-dimethyl-[1,2,4]triazolo[1,5-a]pyridin-6-yl)-6-isopropyl-2-(2-methyl-4-(oxetan-3-yl)piperazin-1-yl)-4H-pyrrolo[3,2-d]thiazole]"
7,> 50,"Cc1c(-c2[nH]c3sc(N4CCN(C(=O)C5CCS(=O)(=O)CC5)C[C@@H]4C)nc3c2C(C)C)cn2ncnc2c1C [Example 347, (S)-(4-(5-(7,8-dimethyl-[1,2,4]triazolo[1,5-a]pyridin-6-yl)-6-isopropyl-4H-pyrrolo[3,2-d]thiazol-2-yl)-3-methylpiperazin-1-yl)(1,1-dioxidotetrahydro-2H-thiopyran-4-yl)methanone]"

# Source: patent US12448395B2 (BRISTOL-MYERS SQUIBB COMPANY, priority 2019, dated 2025)
